Reference: patent US20240246942A1, “KINASE INHIBITORS FOR THE TREATMENT OF NEURODEGENERATIVE DISEASES” (priority 2020, published 2024)

Legend:
Assay in all cases: biochemical
[1] = target: T1, panel of 374 wild-type kinases (Homo sapiens, UniProt Q9BYT3); settings: kinase STK33, read-out: % Enzyme Activity (relative to DMSO controls)
T1 construct: purchased Reaction Biology Corporation

[2] = target: T2, panel of 374 wild-type kinases (Homo sapiens, UniProt Q9NYY3); settings: read-out: % Enzyme Activity (relative to DMSO controls), kinase PLK2
T2 construct: purchased Reaction Biology Corporation

[3] = target: T3, panel of 374 wild-type kinases (Homo sapiens, UniProt P05771); settings: read-out: % Enzyme Activity (relative to DMSO controls), kinase PKCb1
T3 construct: purchased Reaction Biology Corporation
T3 sequence (P05771 whole entry): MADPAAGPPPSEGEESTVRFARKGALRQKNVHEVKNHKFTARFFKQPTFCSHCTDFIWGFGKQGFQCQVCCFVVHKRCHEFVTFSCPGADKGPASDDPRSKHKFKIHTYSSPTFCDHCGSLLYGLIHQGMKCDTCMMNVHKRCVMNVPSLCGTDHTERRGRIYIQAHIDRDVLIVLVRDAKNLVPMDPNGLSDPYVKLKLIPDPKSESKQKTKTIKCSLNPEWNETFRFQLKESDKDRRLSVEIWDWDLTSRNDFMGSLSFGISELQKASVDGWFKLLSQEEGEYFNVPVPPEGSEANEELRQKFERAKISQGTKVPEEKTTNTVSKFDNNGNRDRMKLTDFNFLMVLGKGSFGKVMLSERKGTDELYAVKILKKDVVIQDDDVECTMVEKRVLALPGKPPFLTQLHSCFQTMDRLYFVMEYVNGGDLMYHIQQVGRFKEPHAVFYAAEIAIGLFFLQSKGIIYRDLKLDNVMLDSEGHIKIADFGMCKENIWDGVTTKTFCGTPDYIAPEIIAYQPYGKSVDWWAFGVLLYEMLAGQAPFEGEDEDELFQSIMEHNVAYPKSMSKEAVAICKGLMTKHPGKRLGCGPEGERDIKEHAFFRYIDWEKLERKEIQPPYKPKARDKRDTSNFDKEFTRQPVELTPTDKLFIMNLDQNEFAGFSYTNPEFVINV

[4] = target: T4, panel of 374 wild-type kinases (Homo sapiens, UniProt Q14012); settings: read-out: % Enzyme Activity (relative to DMSO controls), CAMK1a
T4 construct: purchased Reaction Biology Corporation
T4 sequence (Q14012 whole entry): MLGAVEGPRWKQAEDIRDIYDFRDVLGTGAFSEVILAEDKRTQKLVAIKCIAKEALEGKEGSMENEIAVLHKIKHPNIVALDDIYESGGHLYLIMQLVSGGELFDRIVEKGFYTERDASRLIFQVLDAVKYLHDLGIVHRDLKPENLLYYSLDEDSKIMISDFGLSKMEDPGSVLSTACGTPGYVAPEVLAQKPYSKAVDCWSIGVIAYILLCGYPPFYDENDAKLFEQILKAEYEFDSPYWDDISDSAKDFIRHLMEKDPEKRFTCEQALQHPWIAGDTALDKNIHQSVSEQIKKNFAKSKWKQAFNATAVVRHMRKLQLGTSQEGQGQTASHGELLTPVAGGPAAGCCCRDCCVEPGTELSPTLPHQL

[5] = target: T5, panel of 374 wild-type kinases (Homo sapiens, UniProt P48730); settings: read-out: % Enzyme Activity (relative to DMSO controls), CK1d
T5 construct: purchased Reaction Biology Corporation
T5 sequence (P48730 whole entry): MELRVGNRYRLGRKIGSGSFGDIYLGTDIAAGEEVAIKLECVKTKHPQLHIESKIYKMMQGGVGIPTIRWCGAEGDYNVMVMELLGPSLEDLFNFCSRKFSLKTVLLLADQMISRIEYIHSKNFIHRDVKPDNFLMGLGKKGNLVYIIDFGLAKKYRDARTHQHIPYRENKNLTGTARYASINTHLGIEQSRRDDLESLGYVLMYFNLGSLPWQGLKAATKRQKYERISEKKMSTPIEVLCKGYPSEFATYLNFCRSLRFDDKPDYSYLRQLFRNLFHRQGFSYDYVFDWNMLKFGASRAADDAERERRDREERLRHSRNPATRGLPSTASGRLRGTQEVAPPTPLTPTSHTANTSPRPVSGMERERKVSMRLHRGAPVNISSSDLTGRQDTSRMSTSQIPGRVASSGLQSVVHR

[6] = target: T6, panel of 374 wild-type kinases (Homo sapiens, UniProt P54764); settings: read-out: % Enzyme Activity (relative to DMSO controls), EPHA4
T6 construct: purchased Reaction Biology Corporation
T6 sequence (P54764 20-986): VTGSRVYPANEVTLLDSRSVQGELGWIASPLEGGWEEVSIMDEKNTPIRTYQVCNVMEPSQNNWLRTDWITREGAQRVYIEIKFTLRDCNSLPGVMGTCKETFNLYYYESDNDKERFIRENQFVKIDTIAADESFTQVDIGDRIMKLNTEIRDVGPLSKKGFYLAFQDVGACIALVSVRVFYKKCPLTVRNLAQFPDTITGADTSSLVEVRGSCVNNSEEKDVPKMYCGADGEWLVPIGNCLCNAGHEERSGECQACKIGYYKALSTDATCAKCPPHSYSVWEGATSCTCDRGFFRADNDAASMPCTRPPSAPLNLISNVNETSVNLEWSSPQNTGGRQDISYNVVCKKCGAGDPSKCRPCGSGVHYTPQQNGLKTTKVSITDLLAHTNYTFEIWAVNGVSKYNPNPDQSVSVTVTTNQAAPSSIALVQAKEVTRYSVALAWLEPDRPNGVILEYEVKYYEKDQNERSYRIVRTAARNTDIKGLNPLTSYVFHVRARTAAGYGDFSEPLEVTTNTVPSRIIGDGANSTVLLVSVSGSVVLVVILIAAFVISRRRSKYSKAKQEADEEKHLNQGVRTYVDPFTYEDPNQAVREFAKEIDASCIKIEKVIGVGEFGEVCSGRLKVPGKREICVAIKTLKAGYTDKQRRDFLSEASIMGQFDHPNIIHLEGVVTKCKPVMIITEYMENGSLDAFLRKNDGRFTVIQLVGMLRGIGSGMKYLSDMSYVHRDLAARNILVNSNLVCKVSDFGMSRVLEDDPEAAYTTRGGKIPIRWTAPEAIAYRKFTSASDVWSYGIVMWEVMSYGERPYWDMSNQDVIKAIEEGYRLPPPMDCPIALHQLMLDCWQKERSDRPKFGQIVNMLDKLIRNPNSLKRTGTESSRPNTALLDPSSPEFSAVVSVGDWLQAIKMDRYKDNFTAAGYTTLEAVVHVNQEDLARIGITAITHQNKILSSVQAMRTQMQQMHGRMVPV

[7] = target: T7, panel of 374 wild-type kinases (Homo sapiens, UniProt Q8N4C8); settings: read-out: % Enzyme Activity (relative to DMSO controls), MINK/MINK1
T7 construct: purchased Reaction Biology Corporation

[8] = target: T8, panel of 374 wild-type kinases (Homo sapiens, UniProt Q9H0K1); settings: read-out: % Enzyme Activity (relative to DMSO controls), kinase SIK2
T8 construct: purchased Reaction Biology Corporation

[9] = target: T9, panel of 374 wild-type kinases (Homo sapiens, UniProt Q15303); settings: read-out: % Enzyme Activity (relative to DMSO controls), ERBB4/HER4
T9 construct: purchased Reaction Biology Corporation

[10] = target: T10, panel of 374 wild-type kinases (Homo sapiens, UniProt Q86YV6); settings: read-out: % Enzyme Activity (relative to DMSO controls), MYLK4
T10 construct: purchased Reaction Biology Corporation
T10 sequence (Q86YV6 1-388): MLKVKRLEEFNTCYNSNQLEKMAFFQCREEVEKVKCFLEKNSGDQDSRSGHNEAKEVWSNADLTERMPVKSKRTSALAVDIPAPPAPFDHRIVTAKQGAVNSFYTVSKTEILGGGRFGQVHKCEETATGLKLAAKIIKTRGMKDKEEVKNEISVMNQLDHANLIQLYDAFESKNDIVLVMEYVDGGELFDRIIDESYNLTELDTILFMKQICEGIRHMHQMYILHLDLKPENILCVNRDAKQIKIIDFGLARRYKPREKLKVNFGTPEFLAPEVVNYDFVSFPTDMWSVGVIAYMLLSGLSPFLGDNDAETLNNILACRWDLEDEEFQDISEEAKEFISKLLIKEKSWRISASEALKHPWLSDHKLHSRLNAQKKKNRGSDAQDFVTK

[11] = target: T11, panel of 374 wild-type kinases (Homo sapiens, UniProt O94804); settings: read-out: % Enzyme Activity (relative to DMSO controls), LOK/STK10
T11 construct: purchased Reaction Biology Corporation
T11 sequence (O94804 whole entry): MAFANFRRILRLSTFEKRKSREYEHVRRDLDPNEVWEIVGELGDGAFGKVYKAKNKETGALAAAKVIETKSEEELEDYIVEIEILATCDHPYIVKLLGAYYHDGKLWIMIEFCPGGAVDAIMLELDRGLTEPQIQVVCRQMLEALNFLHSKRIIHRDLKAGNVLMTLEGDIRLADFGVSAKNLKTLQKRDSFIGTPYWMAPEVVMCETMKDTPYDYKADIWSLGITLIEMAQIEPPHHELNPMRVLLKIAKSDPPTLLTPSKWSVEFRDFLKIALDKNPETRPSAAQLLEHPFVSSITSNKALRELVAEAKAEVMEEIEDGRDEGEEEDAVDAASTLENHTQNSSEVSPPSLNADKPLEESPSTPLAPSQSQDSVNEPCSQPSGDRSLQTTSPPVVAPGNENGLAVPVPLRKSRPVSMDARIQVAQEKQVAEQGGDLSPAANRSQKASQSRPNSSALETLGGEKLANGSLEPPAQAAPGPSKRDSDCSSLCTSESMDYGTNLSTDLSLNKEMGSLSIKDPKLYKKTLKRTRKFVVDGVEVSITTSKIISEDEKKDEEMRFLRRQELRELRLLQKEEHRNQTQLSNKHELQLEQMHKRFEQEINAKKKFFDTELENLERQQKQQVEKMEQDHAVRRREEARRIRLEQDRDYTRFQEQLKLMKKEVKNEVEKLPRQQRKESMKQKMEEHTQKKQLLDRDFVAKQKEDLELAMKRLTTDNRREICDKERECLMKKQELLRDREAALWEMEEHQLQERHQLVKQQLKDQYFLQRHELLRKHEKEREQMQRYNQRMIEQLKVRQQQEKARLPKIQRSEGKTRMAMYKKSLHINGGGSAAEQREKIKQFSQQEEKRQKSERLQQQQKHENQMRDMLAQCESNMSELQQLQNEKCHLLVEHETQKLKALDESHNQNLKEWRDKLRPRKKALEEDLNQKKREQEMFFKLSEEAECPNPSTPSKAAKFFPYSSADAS

[12] = target: T12, panel of 374 wild-type kinases (Homo sapiens, UniProt Q15746); settings: read-out: % Enzyme Activity (relative to DMSO controls), MLCK/MYLK
T12 construct: purchased Reaction Biology Corporation

[13] = target: T13, panel of 374 wild-type kinases (Homo sapiens, UniProt Q9H093); settings: read-out: % Enzyme Activity (relative to DMSO controls), kinase SNARK/NUAK2
T13 construct: purchased Reaction Biology Corporation
T13 sequence (Q9H093 1-628): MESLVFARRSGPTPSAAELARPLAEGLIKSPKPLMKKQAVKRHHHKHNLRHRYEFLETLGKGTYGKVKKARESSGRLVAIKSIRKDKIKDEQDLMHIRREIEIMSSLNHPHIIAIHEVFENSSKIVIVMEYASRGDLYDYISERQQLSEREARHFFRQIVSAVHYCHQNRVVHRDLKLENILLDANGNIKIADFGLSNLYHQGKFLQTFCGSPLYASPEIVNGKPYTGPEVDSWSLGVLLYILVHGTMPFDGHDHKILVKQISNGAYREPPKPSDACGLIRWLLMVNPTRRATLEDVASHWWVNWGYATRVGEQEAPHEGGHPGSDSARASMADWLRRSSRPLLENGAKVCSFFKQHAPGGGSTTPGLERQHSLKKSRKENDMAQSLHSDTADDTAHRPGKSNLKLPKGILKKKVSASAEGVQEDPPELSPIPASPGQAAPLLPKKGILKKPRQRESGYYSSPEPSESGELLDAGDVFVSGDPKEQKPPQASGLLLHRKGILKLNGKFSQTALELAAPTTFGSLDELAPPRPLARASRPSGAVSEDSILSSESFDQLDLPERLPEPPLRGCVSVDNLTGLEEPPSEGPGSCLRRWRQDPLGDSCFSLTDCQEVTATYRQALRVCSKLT

[14] = target: T14, panel of 374 wild-type kinases (Homo sapiens, UniProt P51617); settings: read-out: % Enzyme Activity (relative to DMSO controls), IRAK1
T14 construct: purchased Reaction Biology Corporation

[15] = target: T15, panel of 374 wild-type kinases (Homo sapiens, UniProt P07947); settings: read-out: % Enzyme Activity (relative to DMSO controls), kinase YES/YES1
T15 construct: purchased Reaction Biology Corporation
T15 sequence (P07947 whole entry): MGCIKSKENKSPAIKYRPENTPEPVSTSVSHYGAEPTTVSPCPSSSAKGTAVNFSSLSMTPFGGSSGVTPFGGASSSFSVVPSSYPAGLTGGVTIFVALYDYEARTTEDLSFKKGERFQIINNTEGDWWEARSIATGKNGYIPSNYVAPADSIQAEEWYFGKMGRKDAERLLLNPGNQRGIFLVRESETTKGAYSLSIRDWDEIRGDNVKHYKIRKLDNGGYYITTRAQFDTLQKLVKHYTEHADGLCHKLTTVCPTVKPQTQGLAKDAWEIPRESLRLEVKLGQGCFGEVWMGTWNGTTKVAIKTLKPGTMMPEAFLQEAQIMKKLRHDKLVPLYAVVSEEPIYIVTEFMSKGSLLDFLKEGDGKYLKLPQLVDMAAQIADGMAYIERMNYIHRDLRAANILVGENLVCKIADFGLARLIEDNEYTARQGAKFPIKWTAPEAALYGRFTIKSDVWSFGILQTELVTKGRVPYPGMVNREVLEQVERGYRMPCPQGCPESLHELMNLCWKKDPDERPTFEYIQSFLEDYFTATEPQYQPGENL

T1 sequence (Q9BYT3 whole entry): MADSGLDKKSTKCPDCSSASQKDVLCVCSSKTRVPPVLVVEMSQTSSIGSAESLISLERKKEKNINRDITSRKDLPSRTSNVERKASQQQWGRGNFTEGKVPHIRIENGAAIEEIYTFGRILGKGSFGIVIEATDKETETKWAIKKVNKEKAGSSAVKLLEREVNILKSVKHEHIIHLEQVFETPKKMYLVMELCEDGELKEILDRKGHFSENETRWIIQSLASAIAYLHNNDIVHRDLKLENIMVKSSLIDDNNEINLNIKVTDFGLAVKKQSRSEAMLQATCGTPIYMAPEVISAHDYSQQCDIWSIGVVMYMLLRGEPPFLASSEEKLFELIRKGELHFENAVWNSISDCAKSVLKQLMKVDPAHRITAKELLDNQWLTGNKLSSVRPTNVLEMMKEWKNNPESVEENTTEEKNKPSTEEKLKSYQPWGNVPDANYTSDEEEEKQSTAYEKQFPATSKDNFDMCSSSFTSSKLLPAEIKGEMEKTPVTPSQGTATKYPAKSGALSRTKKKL

Structure (SMILES)	remaining activity at 5 µM [1]	remaining activity at 5 µM [2]	remaining activity at 5 µM [3]	remaining activity at 5 µM [4]	remaining activity at 5 µM [5]	remaining activity at 5 µM [6]	remaining activity at 5 µM [7]	remaining activity at 5 µM [8]	remaining activity at 5 µM [9]	remaining activity at 5 µM [10]	remaining activity at 5 µM [11]	remaining activity at 5 µM [12]	remaining activity at 5 µM [13]	remaining activity at 5 µM [14]	remaining activity at 5 µM [15]	further results
Cc1sc(C(=O)NC2COC2)cc1-n1cc(NC(=O)Nc2c(F)cccc2Cl)cn1 [Compound 27, 4-(4-(3-(2-chloro-6-fluorophenyl)ureido)-1H-pyrazol-1-yl)-5-methyl-N-(oxetan-3-yl)thiophene-2-carboxamide]	–	–	–	–	–	–	–	–	–	–	–	–	–	–	–	remaining activity at 10 µM ([1]; 10 uM): 87.6%; remaining activity at 10 µM ([2]; 10 uM): 95.2%; remaining activity at 10 µM ([3]; 10 uM): 111%; remaining activity at 10 µM ([4]; 10 uM): 115%; remaining activity at 10 µM ([5]; 10 uM): 112%; remaining activity at 10 µM ([6]; 10 uM): 116%; remaining activity at 10 µM ([7]; 10 uM): 102%; remaining activity at 10 µM ([8]; 10 uM): 89.8%; remaining activity at 10 µM ([9]; 10 uM): 95%; remaining activity at 10 µM ([10]; 10 uM): 109%; remaining activity at 10 µM ([11]; 10 uM): 96.4%; remaining activity at 10 µM ([12]; 10 uM): 103%; remaining activity at 10 µM ([13]; 10 uM): 112%; remaining activity at 10 µM ([14]; 10 uM): 79.9%; remaining activity at 10 µM ([15]; 10 uM): 81.4%
O=C(Nc1cnn(-c2csc(C(=O)NC3COC3)c2)c1)Nc1c(F)cccc1Cl [Compound 25, 4-(4-(3-(2-chloro-6-fluorophenyl)ureido)-1H-pyrazol-1-yl)-N-(oxetan-3-yl)thiophene-2-carboxamide]	81.8%	100%	100%	98%	117%	89.1%	62.2%	95.8%	102%	91.7%	89%	95.9%	97.8%	107%	91%	–
O=C(Nc1cnn(-c2csc(C(=O)NC3COC3)c2)c1)Nc1ccccc1Cl [Compound 17, 4-(4-(3-(2-chlorophenyl)ureido)-1H-pyrazol-1-yl)-N-(oxetan-3-yl)thiophene-2-carboxamide]	99.3%	86%	102%	87.1%	101%	100%	79.4%	97%	105%	85.2%	87.9%	97.5%	99.8%	112%	96.5%	–
